Here are results for 1 compound from patent publication US20030134901A1, “Lipoxin compounds and their use in treating cell proliferative disorders” (priority 1993, published 2003).

Structures are written as SMILES.

For one data set, the system named is PMA-treated HL-60 cells. The data set can be described thus: Lipoxin metabolism / bio-half-life assay with phorbol ester-treated HL-60 cells. Format: in vitro ADME, human. How it is done:
HL-60 cells were purchased from American Type Culture Collection (Rockville, Md.), and other cell culture reagents were from GIBCO (Grand Island, N.Y.). Versene (EDTA) was from Whittaker Bioproducts (Walkersville, Md.). Synthetic 11,12-acetylenic LXA4 methyl ester and LXs were from Cascade Biochemical (Reading, U.K.). 15(S)-15-m-PGE1, PGE1, and 5-HETE were from Cayman Chemical Co. (Ann Arbor, Mich.). [11,12-^3H]LXA4 was prepared from 11,12-acetylenic LXA4 using Lindlar catalyst as a custom tritiation (NET-259, lot 0 2793-275, New England Nuclear, Boston, Mass.). Tritiated products were isolated using RP-HPLC (Fiore et al. (1992) J. Biol. Chem. 267:16168; Serhan, C. N. (1990) Meth. Enzymol. 187:167). Methoxyamine and NAD were from Sigma Chemical Company (St. Louis, Mo.). Manganese dioxide and Adams reagent were from Aldrich Chemical Co. (Milwaukee, Wis.).
(§1) Human PMN were obtained from healthy volunteers by gradient centrifugation of heparinized fresh venous blood (Böyum, A. ([…]) Scand. J. Clin. Lab. Invest. 21:77). HL-60 cells were seeded in RPMI supplemented with penicillin (100 U/ml), streptomycin (100 μ/ml), fetal bovine serum (10%) (Hyclone, Logan, Utah) and incubated (37° C. with 5% CO2 atmosphere) in plastic 250 ml flasks. Individual flasks containing […] HL-60 cells/ml were incubated in the presence or absence of phorbol 12-myristate 13-acetate (PMA) (10 or 16 nM, 24-27 h) and adherence was monitored for induction of macrophage-like phenotype as in Collins, S. J. (1987) Blood 70:1233. […]
(§2) Incubations with eicosanoids were stopped with cold methanol containing either PGB2 or 5-HETE as internal standards (5-HETE was used when 15-oxo-ETE was quantified). […] Formation of 15-oxo-ETE by 100,000 g supernatants (cf. Agins, A. P. et al. (1987) Agents Actions 21:397; Xun, C-Q. et al.(1991) Biochem. J. 279:553; and Sok, D-E. et al. (1988) Biochem. Biophys. Res. Commun. 156:524) was quantified after RP-HPLC using an ODS column (4.6 mm×25 cm) eluted with methanol/H2O/acetic acid (70:30:0.01, v/v/v) monitored at 280 nm with a flow rate of 1 ml/min. […] On-line spectra were recorded using a diode array detector (Hewlett-Packard 1040M series II) equipped with HPLC^3D ChemStation software (DOS series). […]
The “bio-half-life” of compounds 1-8 was assessed using phorbol ester-treated human promyelocytic leukemia (HL-60) cells as described in Example 2. […]

The subject of data set [1] is peripheral blood monocytes. As to the kind of experiment: LXA4 metabolism by peripheral blood monocytes. Format: in vitro ADME, human. To be noted: within 30 s. How it is done:
as §1, §2

In the data set on PMA-treated HL-60 cells (PMA-treated HL-60 cells, within the first 60 s of exposure), `CCCCC[C@H](O)/C=C/C=C\C=C\C=C\[C@@H](O)[C@@H](O)CCCC(=O)O` [LXA4, (5S, 6R, 15S)-trihydroxy-7E, 9E, 11Z, 13E-eicosatetraenoic acid] showed an LXA4 metabolized of over 70%. Besides, the “LXA4 converted” value is “more than 95%” with PMA-treated HL-60 cells (within five minutes of addition to the cell incubation) and over 60% in data set [1].
